Experimental data published in article PMC6535779, “A Specific, Glycomimetic Langerin Ligand for Human Langerhans Cell Targeting” (ACS Central Science, 2019).

Tests used:
[1] = molecular target: T1, Langerin extracellular domain (ECD) (Homo sapiens, UniProt Q9UJ71); experiment: 19F R2-filtered NMR reporter displacement assay with Langerin; format: binding; details: for Ki: 19F R2-filtered NMR, 0.1 mM reporter ligand 24, pH 7.8, 25 °C; for Relative potency, Langerin: calculated utilizing the KI value determined for GlcNAc
T1 construct: the trimeric Langerin extracellular domain (ECD) was expressed insolubly in E; made in house
Method: Receptor Expression and Purification
General remarks. Codon-optimized genes for the expression of Langerin and DC-SIGN in E. coli were purchased from GenScript and Life Technologies, respectively. All growth media or chemicals used for receptor expression and purification were purchased from Carl Roth if not stated otherwise.
Langerin extracellular domain. Expression and purification were conducted as previously published14. Briefly, the trimeric Langerin extracellular domain (ECD) was expressed insolubly in E. coli BL21* (DE3) (Invitrogen). Following enzymatic cell lysis, inclusion bodies were harvested and subsequently solubilized. The sample was centrifuged and the Langerin ECD was refolded overnight via rapid dilution. Next, the sample was dialyzed overnight, centrifuged and purified via mannan-agarose affinity chromatography (Sigma Aldrich). For 19F R2-filtered NMR and lipid-enzyme-linked lectin assay (Lipid-ELLA) experiments, the buffer was exchanged to 25 mM Tris with 150 mM NaCl and 5 mM CaCl2 at pH 7.8 using 7 kDa size-exclusion desalting columns (Thermo Scientific). For […]
D2O, 150 mM NaCl and 5 mM CaCl2 at pH 7. The concentration of Langerin ECD was determined via UV spectroscopy (A280, 0.1% = 2.45). Purity and monodispersity of Langerin ECD samples were analyzed via SDS PAGE and DLS. […]
General remarks. 19F R2-filtered NMR experiments were conducted on a PremiumCompact 600 MHz spectrometer (Agilent). Spectra were processed in MestReNova and data analysis was performed with OriginPro 13, 15. Experiments with the Langerin ECD were performed at a receptor concentration of 50 μM in 25 mM Tris with 10% D2O, 150 mM NaCl and 5 mM CaCl2 at pH 7.8 and 25° C. […]
10% D2O, 150 mM NaCl and 5 mM CaCl2 at pH 7.0 and 25°C. TFA served as an internal reference at a concentration of 50 μM. Apparent relaxation rates R2,obs for the reporter ligand were determined using the CPMG pulse sequence as previously published3-5. […]
KI determination. KI values were determined as previously published for Langerin3. Briefly, titration experiments were conducted at a concentration of 0.1 mM of reporter ligand 24 at five competitor concentrations [I]T. Samples were prepared via serial dilution. For the acids GlcNS, GlcNAc-6-OS and GlcNS-6-OS the pH values were monitored and adjusted to 7.8 if necessary.
General remarks. 15N HSQC NMR experiments were conducted on an Ascend 700 MHz spectrometer (Bruker)16. Spectra were processed in NMRPipe17. Data analysis was performed using CCPN Analysis, MatLab and OriginPro15, 18-19. Experiments with the Langerin CRD were performed at a receptor concentration of 100 μM in 25 mM HEPES with 10% D 2O, 150 mM NaCl and 5 mM CaCl2 at pH 7.8 and 25° C. DSS-d6 served as an internal reference at a concentration of 100 μM. Spectra were referenced via the internal spectrometer reference. Spectra were acquired with 128 increments and 32 scans per increments for 150 μl samples in 3 mm sample tubes. The relaxation delay d1 was set to 1.4 s and the acquisition time tacq was set to 100 ms. The W5 Watergate pulse sequence was used for solvent suppression20. The used resonance assignment for the Langerin CRD has been published […]
KD determination. KD values were determined in titration experiments at six ligand concentrations [L]T. Samples were prepared via serial dilution. Chemical shift perturbations CSPs for Langerin CRD resonances in the fast or fast-to-intermediate exchange regime observed upon titration with ligand were calculated via Equation 121.

[2] = test system: Langerin^+ THP-1 cells; experiment: Colorimetric cytotoxicity assay, Langerin+ THP-1 cells; format: cell-based, human; details: doxorubicin encapsulated in liposomes or free, 48 h
Method: (§1) the PEG-DSPE was substituted with glycolipids 22 or 23 at varying ratios. PEG-DSPE (3.0 kDa, NOF Europe), 22 or 23 were dissolved in DMSO, added to a round bottom flask and lyophilized. Next, DSPC (NOF Europe) and cholesterol (Sigma Aldrich) were dissolved in chloroform, added to the test tube and the solvent was removed in vacuo. The residue was dissolved in PBS and the mixture was vortexed and sonicated repeatedly until a homogeneous suspension was obtained. Unilamellar liposomes were prepared using a pore extruder (Avanti Polar Lipids) with polycarbonate membranes of 800, 400, 200 and finally 100 nm pore size (Avanti Polar Lipids). […]
(§2) The Lipid-ELLA was conducted as previously published35. […] Binding of the Langerin ECD was detected via absorbance A450 measurements at 450 nm using a SpectraMax spectrometer (Molecular Devices) in three independent titrations.
(§3) CO2. […] After centrifugation at 400 g for 5 min the supernatant was analyzed in the TNF-α ELISA. […]
(§4) To assess the cytotoxicity of doxorubicin-containing liposomes with THP-1 cells, 50,000 cells per well were added to 96 well microtiter plates (Corning) and incubated in presence of liposomes at a given total lipid concentration [Lipid]T in a final volume of 100 μl for 48 h at 37°C and 5% CO2. Cell viability was analyzed using CellTiter 96 (Promega) by measuring formazan absorbance at 490 nm. […]

[3] = test system: Langerin^– THP-1 cells; experiment: Colorimetric cytotoxicity assay, Langerin- THP-1 cells; format: cell-based, human; details: doxorubicin encapsulated in liposomes or free, 48 h
Method: as §1, §2, §3, §4

T1 sequence (Q9UJ71 65-328 limits assumed): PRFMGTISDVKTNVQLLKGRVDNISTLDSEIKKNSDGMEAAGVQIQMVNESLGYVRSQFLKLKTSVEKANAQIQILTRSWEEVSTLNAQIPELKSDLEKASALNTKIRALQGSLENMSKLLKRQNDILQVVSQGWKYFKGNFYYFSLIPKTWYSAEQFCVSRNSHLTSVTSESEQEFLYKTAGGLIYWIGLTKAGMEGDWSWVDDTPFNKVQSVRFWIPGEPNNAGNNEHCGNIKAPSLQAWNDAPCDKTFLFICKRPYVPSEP

Structure (SMILES) | Ki [1] | Relative potency, Langerin [1] | affinity increase over Man-based reference molecule 21 ([1]; from KI values, Langerin, b47 words it as over natural glycans) | killing of Langerin^+ THP-1 cells [2] | killing of Langerin^– THP-1 cells [3]
CC(=O)N[C@@H]1[C@@H](O)[C@H](O)[C@@H](CO)O[C@H]1O [GlcNAc, N-acetyl glucosamine] | 4100 ± 700 µM | 1.0 |  |  | 
CC(=O)N[C@H]1C(O)O[C@H](COS(=O)(=O)O)[C@@H](O)[C@@H]1O (stereo partly shown) [GlcNAc-6-OS, N-acetyl glucosamine-6-sulfate] | 600 ± 100 µM | 6.8 |  |  | 
O=S(=O)(O)N[C@H]1C(O)O[C@H](CO)[C@@H](O)[C@@H]1O (stereo partly shown) [GlcNS, glucosamine-2-sulfate] | 1400 ± 200 µM | 2.9 |  |  | 
O=S(=O)(O)N[C@H]1C(O)O[C@H](COS(=O)(=O)O)[C@@H](O)[C@@H]1O (stereo partly shown) [GlcNS-6-OS, glucosamine-2-sulfate-6-sulfate] | 280 ± 60 µM | 14 |  |  | 
OC[C@H]1OC(O)[C@H](O)[C@@H](O)[C@@H]1O (stereo partly shown) [Glc] | 21000 ± 4000 µM | 0.20 |  |  | 
Cc1ccc(S(=O)(=O)N[C@H]2[C@H](OCCN)O[C@H](CO)[C@@H](O)[C@@H]2O)cc1 [compound 15] |  |  | 42 fold |  | 
COc1cccc2c1C(=O)c1c(O)c3c(c(O)c1C2=O)C[C@@](O)(C(=O)CO)C[C@@H]3O[C@H]1C[C@H](N)[C@H](O)[C@H](C)O1 [free doxorubicin, doxorubicin] |  |  |  | killed both Langerin^+ and Langerin^– cells | killed both Langerin^+ and Langerin^– cells
